Reference: patent US7589185B2, “Nucleotide sequences and protein(s) encoded by such nucleotides for modulation of apoptosis” (Universita' degli Studi di Catanzaro “Magna Graecia”, priority 2001, dated 2009)

Key:
[1] = tested on: Air protein; test: Intracellular expression of Air protein in primary B-CLL cells, immunofluorescence flow cytometry; assay type: cell-based, human
Source text: Presence of the Protein in primary ex vivo cells—We investigated whether our protein was present in primary ex vivo cells. (Procedures and conditions for isolation and culturing of primary cells are described in ref. 8-10). To this purpose, we first analysed three samples of B chronic lymphocytic leukemia (B-CLL) cells, since these cells can be considered a primary counterpart of the cell line that we initially studied. To detect the protein, we perform intracellular immuno-fluorescence experiments. 1−2×10^6 cells were fixed and permeabilised with 250 microl of Cytofix/Cytoperm (Pharmingen) solution, then incubated with the specific anti-Air rabbit polyclonal or a control rabbit antibody, followed by washing with Perm/Wash (Pharmingen) and a second incubation with fluorescein isothiocyanate (FITC)-conjugated goat anti-rabbit antibody. Then the cells were analysed with a FACScan (Becton Dickinson) flow cytometer. These experiments allowed to detect the presence of the protein in the three analysed B-CLL samples (FIGS. 7, 8 and 9).
FIG. 7—Intracellular expression of Air protein in cells from a patient affected by B-CLL. 2×10^6/ml cells obtained from patient's peripheral blood by centrifugation through Ficoll-Hypaque were incubated 24 h at 37° C. in a 5% CO2 atmosphere in the absence or presence of 2 mM DEM, fixed and permeabilised with 250 microl of Cytofix/Cytoperm (Pharmingen) solution. The cells were then incubated with the specific anti-Air rabbit polyclonal or a control rabbit antibody, followed by washing with Perm/Wash (Pharmingen) and a second incubation with fluorescein isothiocyanate (FITC)-conjugated goat anti-rabbit antibody. Then the cells were analysed with a FACScan (Becton Dickinson) flow cytometer. A panel: unstimulated cells. B panel: DEM-stimulated cells. Protein expression is detected in the 33.8% of the cells in basal conditions and in the 47.6% of the cells incubated with DEM.
FIG. 8—Intracellular expression of Air protein in cells from a patient affected by B-CLL. 2×10^6/ml cells obtained from patient's peripheral blood by centrifugation through Ficoll-Hypaque were incubated 24 h at 37° C. in a 5% CO2 atmosphere in the absence or presence of 2 mM DEM or 20 microM 2-Methoxymethylestradiol (2-ME), fixed and permeabilised with 250 microl of Cytofix/Cytoperm (Pharmingen) solution. The cells were then incubated with the specific anti-Air rabbit polyclonal or a control rabbit antibody, followed by washing with Perm/Wash (Pharmingen) and a second incubation with fluoresceinisothiocyanate (FITC)-conjugated goat anti-rabbit antibody. Then the cells were analysed with a FACScan (Becton Dickinson) flow cytometer. A panel: unstimulated cells. B panel: DEM-stimulated cells. C panel: cells stimulated with the drug 2-Methoxymethylestradiol (2-ME). Protein expression is detected in the 17.3% of the cells in basal conditions, in the 55.5% of DEM-stimulated cells and in the 53.1% of 2-ME-stimulated cells.
FIG. 9—Intracellular expression of Air protein in a patient affected by B-CLL. […] Then the cells were analysed with a FACScan (Becton Dickinson) flow cytometer. […] Protein expression is detected in the 27.2% of the cells in basal conditions, in the 28.3% of DEM-stimulated cells and in the 23.1% of 2-ME-stimulated cells.

[2] = tested on: SH-SY5Y neuroblastoma cells; test: Apoptosis of SH-SY5Y neuroblastoma cells induced by DEM, propidium iodide flow cytometry; assay type: cell-based, human; settings: 2 or 6 mM DEM, oligonucleotides 7 microM, 12 or 16 h (FIGS. 3-6)

Compound: COCc1cc2c(cc1O)CC[C@@H]1[C@@H]2CC[C@]2(C)[C@@H](O)CC[C@@H]12 [2-ME, 2-Methoxymethylestradiol]
- cells in which Air protein expression is detected ([1]; B-CLL patient of FIG. 8, 20 microM 2-ME, 24 h (basal 17.3%)): 53.1%
- cells in which Air protein expression is detected ([1]; B-CLL patient of FIG. 9, 20 microM 2-ME, 24 h (basal 27.2%)): 23.1%

Compound: SEQ ID NO 7: antisense phosphorothioate oligonucleotide directed at blocking Air synthesis (ATCTTAGTCTTATACATTTTTTTAAA; all phosphorothioate, sugars by position and methylation of C not given here)
- modulation of apoptosis [2]: blocking it

Compound: SEQ ID NO 8: antisense phosphorothioate oligonucleotide directed at blocking Air synthesis (CTTTCTATCTTCATTTTATTTTTCC; all phosphorothioate, sugars by position and methylation of C not given here)
- modulation of apoptosis [2]: blocking it

Compound: CCOC(=O)/C=C\C(=O)OCC [DEM, diethylmaleate]
- cells in which Air protein expression is detected ([1]; B-CLL patient of FIG. 7, 2 mM DEM, 24 h (basal 33.8%)): 47.6%
- cells in which Air protein expression is detected ([1]; B-CLL patient of FIG. 8, 2 mM DEM, 24 h (basal 17.3%)): 55.5%
- cells in which Air protein expression is detected ([1]; B-CLL patient of FIG. 9, 2 mM DEM, 24 h (basal 27.2%)): 28.3%

Compound: SEQ ID NO 6: antisense phosphorothioate oligonucleotide directed at blocking Air synthesis (CTTAGTCTTATACATTTTTTTAAAATC; all phosphorothioate, sugars by position and methylation of C not given here)
- modulation of apoptosis [2]: blocking it
